Eleven compounds from patent US11427610B2, “Cyclic dinucleotides as anticancer agents” (BRISTOL-MYERS SQUIBB COMPANY, priority 2017, dated 2022) can be followed below.

The target in test [1] is T1, STING AQ: His-TVMV-S-hSTING(155-341)-G230A-R293Q (Homo sapiens, UniProt Q86WV6, G230A/H232R/R293Q).
T1 construct: His-TVMV-S-hSTING(155-341)-G230A-R293Q
The experiment in a line: STING HTRF binding assay, STING AQ. Conditions: 20 nM His-tagged STING cytoplasmic domain, 40 nM fluorescein-labeled cGAMP analog probe, one hour; read-out: HTRF Binding Assays IC50 (μM) STING AQ. On the procedure: (§1) A time resolved FRET-based competition binding assay was used to assess test article binding to STING WT and STING AQ. His-tagged STING cytoplasmic domain (WT or AQ) at a concentration of 20 nM was incubated with 2.5 nM Tb-labeled anti-His antibody, test compound, and fluorescein-labeled cGAMP analog probe (BioLog cat. no. C195) at a concentration of 200 nM (STING WT) or 40 nM (STING AQ) in PBS containing 0.005% Tween-20 and 0.1% BSA for one hour. Fluorescence at 495 nm and 520 nm was measured using an EnVision microplate reader to quantify FRET between Tb-labeled anti-His antibody and fluorescein-labeled probe. Background was defined as the signal obtained in the absence of STING protein, and background subtracted FRET ratios were normalized to the maximum signal obtained in the absence of test compound. These values were converted to a percent inhibition. Percent inhibition was determined for test compounds at 11 concentrations. The IC50, defined as the concentration of competing test compound needed to reduce specific binding of the probe by 50%, was calculated using the 4 parameter logistic equation to fit the data
A general note: In TR-FRET formats the signal depends on donor and acceptor labels being close together.

The next test deals with IRF3. The experiment in a line: STING THP1 reporter assay, IRF pathway (Lucia luciferase). The conditions noted are these: THP1-Dual cells, 10% human plasma, 100% activation = 100 μM cGAMP, luciferase readout, read-out: THP1 Reporter Assays EC50 (μM) IRF3. Type of test: cell-based. The text has this: (§2) THP1-Dual™ cells were derived from the human THP-1 monocyte cell line by stable integration of two inducible reporter constructs. To this end, THP1-Dual™ cells allow the simultaneous study of the NF-κB pathway, by monitoring the activity of SEAP, and the IRF pathway by assessing the activity of a secreted luciferase (Lucia). Both reporter proteins are readily measurable in the cell culture supernatant when using QUANTI-Blue™, a SEAP detection reagent, and QUANTI-Luc™, a luciferase detection reagent.
(§3) THP1-Dual™ cells induce the activation of NF-κB in response to STING agonists. They also trigger the IRF pathway upon stimulation with STING agonists, such as cGAMP. Here, the THP-1-Dual cells were used to assess STING binders for function on the cellular level.
(§4) Serial dilutions of compounds in DMSO were added to low volume 384 well plates at 100 nl/well using an ECHO acoustic dispenser (Labcyte, model 550) to achieve final starting concentration of 100 μM in cell suspension. THP-1 Dual™ STING reporter cells (Invivogen, Dual cells cat #THPD-nfis) were added to the plates with compounds at 15,000 cells in 10 μL per well in RPMI media (Gibco, cat #11875) containing 10% human plasma in a low volume 384-well black wall clear bottom tissue culture plate (Corning, cat #3542) for SEAP assay and low volume solid white plate (Corning, cat #3826) for luciferase assay. One column of the plate was reserved for treatment with cGAMP at 100 μM for 100% activation calculation and one column for no treatment (DMSO only) for baseline activation. Plates were then incubated in 37° C. incubator at 5% CO2 for 20 hours.
(§5) In the SEAP assay, 5 μl of 2× QuantiBlue (Invivogen, cat #Rep-qb2) is added to 384 well black plates seeded with THP1 cells and incubated at 37° C. for 2 hours. Plates were read on the Envision (Perkin Elmer) at 620 nm wavelength (OD620). In the luciferase assay, 5 μl of Quantiluc (Invivogen, Rep-qlc2) is added to white 384 well plates seeded with THP1 cells and read at 5 minutes on the Envision (Perkin Elmer) using a luminescence protocol (RLU). For both cell lines, 100% activation was determined by value (RLU) of THP-1 Dual STING cells stimulated with 100 μM cGAMP (Invivogen, cat #TLRL-NACGA23-5).
In general terms: Reporter assays use an easily measured gene product as a stand-in for the process of interest.

In test [2] the target is T2, STING WT: His-TVMV-S-hSTING(155-341)-H232R (Homo sapiens, UniProt Q86WV6, H232R).
T2 construct: His-TVMV-S-hSTING(155-341)-H232R
In words: STING HTRF binding assay, STING WT. The conditions noted are these: 20 nM His-tagged STING cytoplasmic domain, 200 nM fluorescein-labeled cGAMP analog probe, one hour; read-out: HTRF Binding Assays IC50 (μM) STING WT. How it is done:
as §1

For a further test, the system named is NFkB. The experiment in a line: STING THP1 reporter assay, NF-κB pathway (SEAP). Type of test: cell-based. The conditions noted are these: THP1-Dual cells, 10% human plasma, 100% activation = 100 μM cGAMP, SEAP readout, read-out: THP1 Reporter Assays EC50 (μM) NFkB.
From the text: as §2, §3, §4, §5

Read-outs that look alike come from different tables or passages of the source.

T2 sequence (Q86WV6 with tags, fused parts or gaps H232R): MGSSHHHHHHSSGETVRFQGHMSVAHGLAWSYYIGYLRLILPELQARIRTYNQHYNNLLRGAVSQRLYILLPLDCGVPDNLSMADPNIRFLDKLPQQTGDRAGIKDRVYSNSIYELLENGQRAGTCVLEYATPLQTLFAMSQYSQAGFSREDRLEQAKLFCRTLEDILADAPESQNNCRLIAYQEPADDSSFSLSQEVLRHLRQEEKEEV
T1 sequence (Q86WV6 with tags, fused parts or gaps G230A/H232R/R293Q): as the sequence (Q86WV6 with tags, fused parts or gaps H232R) above, with G99A, R162Q counted along it

`C#C[C@@H]1O[C@@H]2COP(=O)(S)O[C@H]3[C@@H](F)[C@H](n4cnc5c(N)ncnc54)O[C@@H]3COP(=O)(S)O[C@@H]1[C@@H]2O` (single isomer, unassigned) [Example 1-2]: the figures for the IC50 in test [1] and in test [2] were 0.03 µM and 1.7 µM, respectively. Further, the EC50 is 24 µM with IRF3 (20 hours) and 42 µM with NFkB (20 hours).
As for `Nc1ncnc2c1ncn2[C@@H]1O[C@@H]2COP(O)(=S)O[C@@H]3[C@H](O)[C@@H](COP(O)(=S)O[C@H]2[C@H]1F)O[C@H]3C#Cc1ccccc1` (single isomer, unassigned) [Example 2-1], the IC50 in test [1] is 19.4 µM; in test [2], more than 100 µM. Also, the EC50 in the test with IRF3 (20 hours) is more than 100 µM.
Consider `Nc1ncnc2c1ncn2[C@@H]1O[C@@H]2COP(O)(=S)O[C@@H]3[C@H](O)[C@@H](COP(O)(=S)O[C@H]2[C@H]1F)O[C@H]3C#Cc1ccccc1` (single isomer, unassigned) [Example 2-2], for which the figures for the IC50 in test [1] and in test [2] were 0.5 µM and 9.6 µM, respectively. The EC50 with IRF3 (20 hours) was more than 100 µM.
With `Nc1ncnc2c1ncn2[C@@H]1O[C@@H]2COP(O)(=S)O[C@@H]3[C@H](O)[C@@H](COP(O)(=S)O[C@H]2[C@H]1F)O[C@H]3C#Cc1cccnc1` (single isomer, unassigned) [Example 3-4], the IC50 in test [1] came to 1.4 µM; in test [2], 29.6 µM. Moreover, the 50% effective concentration (EC50) in the test on IRF3 (20 hours) and with NFkB (20 hours) was more than 100 µM throughout.
In the case of `Nc1ncnc2c1ncn2[C@@H]1O[C@@H]2COP(O)(=S)O[C@@H]3[C@H](O)[C@@H](COP(O)(=S)O[C@H]2[C@H]1F)O[C@H]3C#Cc1cccnc1` (single isomer, unassigned) [Example 3-1], the concentration for half-maximal inhibition (IC50) worked out at 1.3 µM in test [1] and 67.4 µM in test [2]. Also, the EC50 in the test with IRF3 (20 hours) and with NFkB (20 hours) was more than 100 µM throughout.
With `Nc1ncnc2c1ncn2[C@@H]1O[C@@H]2COP(O)(=S)O[C@@H]3[C@H](O)[C@@H](COP(O)(=S)O[C@H]2[C@H]1F)O[C@H]3C#Cc1ccccc1` (single isomer, unassigned) [Example 2-3], the IC50 is 0.7 µM in test [1] and 20.5 µM in test [2]. Moreover, the EC50 with IRF3 (Homo sapiens, THP-1, 20 h) was more than 100 µM; with NFkB (Homo sapiens, THP-1, 20 h), more than 100 µM.
Consider `Nc1ncnc2c1ncn2[C@@H]1O[C@@H]2COP(O)(=S)O[C@@H]3[C@H](O)[C@@H](COP(O)(=S)O[C@H]2[C@H]1F)O[C@H]3C#Cc1cccnc1` (single isomer, unassigned) [Example 3-2], for which the IC50 in test [1] turned out to be 0.2 µM; in test [2] it was 3.4 µM. In addition, the EC50 with IRF3 (20 hours) and with NFkB (20 hours) was more than 100 µM throughout.
In the case of `Nc1ncnc2c1ncn2[C@@H]1O[C@@H]2COP(O)(=S)O[C@@H]3[C@H](O)[C@@H](COP(O)(=S)O[C@H]2[C@H]1F)O[C@H]3C#Cc1ccccc1` (single isomer, unassigned) [Example 2-4], the results for the IC50 in test [1] and in test [2] were 17 µM and more than 100 µM, respectively. The EC50 in the test with IRF3 (20 hours) is more than 100 µM.
Turning to `Nc1ncnc2c1ncn2[C@@H]1O[C@@H]2COP(O)(=S)O[C@@H]3[C@H](O)[C@@H](COP(O)(=S)O[C@H]2[C@H]1F)O[C@H]3C#Cc1cccnc1` (single isomer, unassigned) [Example 3-3], the IC50 came out at 0.04 µM in test [1] and 1.1 µM in test [2]. The EC50 is 6 µM in the test with IRF3 (20 hours) and 8.1 µM in the test on NFkB (20 hours).
Regarding `C#C[C@@H]1O[C@@H]2COP(=O)(S)O[C@H]3[C@@H](F)[C@H](n4cnc5c(N)ncnc54)O[C@@H]3COP(=O)(S)O[C@@H]1[C@@H]2O` (single isomer, unassigned) [Example 1-1], the half-maximal inhibitory concentration (IC50) was determined as 0.06 µM in test [1] and 1.4 µM in test [2]. The EC50 in the test with IRF3 (Homo sapiens, THP-1, 20 h) was 23 µM; in the test with NFkB (Homo sapiens, THP-1, 20 h), 37 µM.
As for `C#C[C@@H]1O[C@@H]2COP(O)(=S)O[C@H]3[C@@H](F)[C@H](n4cnc5c(N)ncnc54)O[C@@H]3COP(O)(=S)O[C@@H]1[C@@H]2O` (single isomer, unassigned) [Example 1-3], the IC50 in test [1] came out at 1.9 µM; in test [2], 55.3 µM. Further, the EC50 in the test with IRF3 (Homo sapiens, THP-1, 20 h) is more than 100 µM; in the test with NFkB (Homo sapiens, THP-1, 20 h) it was more than 100 µM.

One may read the IC50 as the concentration needed to halve the response being measured. As usually defined, the EC50 is the concentration at which the effect is half-maximal.
